test system: HCV 1b-Con-1 replicon; assay: HCV 1b-Con-1 replicon assay (luciferase reporter gene, HuH-7 cells); assay type: cell-based, Hepatitis C virus (HCV) genotype 1b-Con1; details: Hepatitis C virus, Huh-7, luciferase reporter gene activity in the replicon, in the presence of 5% FBS

Row | Structure (SMILES) | EC50 [nM]
1 | COC(=O)N[C@H](C(=O)N1CCC[C@H]1c1nc2cc(CN(Cc3ccc4[nH]c([C@@H]5CCCN5C(=O)[C@@H](NC(=O)OC)C(C)C)nc4c3)c3ccc(F)cc3)ccc2[nH]1)C(C)C [Example 96, methyl [(1S)-1-{[(2S)-2-(5-{[(4-fluorophenyl)({2-[(2S)-1-{(2S)-2-[(methoxycarbonyl)amino]-3-methylbutanoyl}pyrrolidin-2-yl]-1H-benzimidazol-5-yl}methyl)amino]methyl}-1H-benzimidazol-2-yl)pyrrolidin-1-yl]carbonyl}-2-methylpropyl]carbamate] | < 1
2 | COC(=O)N[C@H](C(=O)N1CCC[C@H]1C(=O)Nc1ccc(CN(Cc2ccc(NC(=O)[C@@H]3CCCN3C(=O)[C@@H](c3ccccc3)N3CCOCC3)cc2)c2ccccc2)cc1)C(C)(C)C [Example 58, N-(methoxycarbonyl)-3-methyl-L-valyl-N-[4-({[4-({1-[(2R)-2-morpholin-4-yl-2-phenylacetyl]-L-prolyl}amino)benzyl](phenyl)amino}methyl)phenyl]-L-prolinamide] | < 1
3 | CC(=O)N[C@@H](C(=O)N1CCC[C@H]1C(=O)Nc1ccc(CN(Cc2ccc(NC(=O)[C@@H]3CCCN3C(=O)[C@H](NC(C)=O)c3ccccc3)cc2)c2ccccc2)cc1)c1ccccc1 [Example 43, (2S,2′S)-N,N′-[(phenylimino)bis(methanediylbenzene-4,1-diyl)]bis{1-[(2R)-2-(acetylamino)-2-phenylacetyl]pyrrolidine-2-carboxamide}] | < 1
4 | COC(=O)N[C@H](C(=O)N1CCC[C@H]1C(=O)Nc1ccc(CN(Cc2ccc(NC(=O)[C@@H]3CCCN3C(=O)[C@@H](NC(=O)OC)C(C)(C)O)cc2)c2ccc(F)cc2)cc1)C(C)(C)O [Example 98, dimethyl ([(4-fluorophenyl)imino]bis{methanediylbenzene-4,1-diylcarbamoyl(25)pyrrolidine-2,1-diyl[(2S)-3-hydroxy-3-methyl-1-oxobutane-1,2-diyl]})biscarbamate] | < 1
5 | O=C(Nc1ccc(CN(Cc2ccc(NC(=O)[C@@H]3CCCN3C(=O)[C@@H](c3ccccc3)N3CCCCC3)cc2)c2ccc(F)c(F)c2)cc1)[C@@H]1CCCN1C(=O)[C@@H](c1ccccc1)N1CCCCC1 [Example 137, (2S,2′S)-N,N′-{[(3,4-difluorophenyl)imino]bis(methanediylbenzene-4,1-diyl)}bis{1-[(2R)-2-phenyl-2-piperidin-1-ylacetyl]pyrrolidine-2-carboxamide}] | < 1
6 | COC(=O)N[C@H](C(=O)N1CCC[C@H]1C(=O)Nc1ccc(CN(Cc2ccc(NC(=O)[C@@H]3CCCN3C(=O)[C@@H](NC(=O)OC)C(C)(C)C)cc2)[C@@H]2CCOC2)cc1)C(C)(C)C [Example 44, dimethyl ([(3R)-tetrahydrofuran-3-ylimino]bis{methanediylbenzene-4,1-diylcarbamoyl(2S)pyrrolidine-2,1-diyl[(2S)-3,3-dimethyl-1-oxobutane-1,2-diyl]})biscarbamate] | 10 to 100
7 | COC(=O)N[C@H](C(=O)N1[C@H](C(=O)Nc2ccc(CN(Cc3ccc(NC(=O)[C@@H]4C[C@@H]5CCC[C@@H]5N4C(=O)[C@@H](NC(=O)OC)C(C)(C)C)cc3)c3ccc(F)cc3)cc2)C[C@@H]2CCC[C@@H]21)C(C)(C)C [Example 123, dimethyl ([(4-fluorophenyl)imino]bis{methanediylbenzene-4,1-diylcarbamoyl(2S,3aS,6aS)hexahydrocyclopenta[b]pyrrole-2,1(2H)-diyl[(2S)-3,3-dimethyl-1-oxobutane-1,2-diyl]})biscarbamate] | < 1
8 | COC(=O)N[C@H](C(=O)N1C(C)CC[C@H]1C(=O)Nc1ccc(CN(Cc2ccc(NC(=O)[C@@H]3CCC(C)N3C(=O)[C@H](NC(=O)OC)C(C)(C)C)cc2)c2ccc(F)cc2)cc1)C(C)(C)C (stereo partly drawn) [Example 142, methyl [(1R)-1-{[(2S)-2-{[4-({(4-fluorophenyl)[4-({[(2S)-1-{(2S)-2-[(methoxycarbonyl)amino]-3,3-dimethylbutanoyl}-5-methylpyrrolidin-2-yl]carbonyl}amino)benzyl]amino}methyl)phenyl]carbamoyl}-5-methylpyrrolidin-1-yl]carbonyl}-2,2-dimethylpropyl]carbamate] | < 1
9 | COC(=O)N[C@H](C(=O)N1CCC[C@H]1C(=O)Nc1ccc(CN(Cc2ccc(NC(=O)[C@@H]3CCCN3C(=O)[C@H](NC(=O)OC)c3ccccc3)cc2)c2ccccc2)cc1)C(C)(C)C [Example 69] | < 1
10 | CC(=O)O[C@H](C(=O)N1CCC[C@H]1C(=O)Nc1ccc(CN(Cc2ccc(NC(=O)[C@@H]3CCCN3C(=O)[C@H](OC(C)=O)c3ccccc3)cc2)c2ccc(F)cc2)cc1)c1ccccc1 [Example 113, [(4-fluorophenyl)imino]bis[methanediylbenzene-4,1-diylcarbamoyl(2S)pyrrolidine-2,1-diyl(1R)-2-oxo-1-phenylethane-2,1-diyl]diacetate] | < 1
11 | CC[C@H](NC(=O)OC)C(=O)N1CCC[C@H]1C(=O)Nc1ccc(CN(Cc2ccc(NC(=O)[C@@H]3CCCN3C(=O)[C@H](NC(=O)OC)c3ccccc3)cc2)c2ccccc2)cc1 [Example 71, methyl {(1R)-2-[(2S)-2-{[4-({[4-({[(2S)-1-{(2S)-2-[(methoxycarbonyl)amino]butanoyl}pyrrolidin-2-yl]carbonyl}amino)benzyl](phenyl)amino}methyl)phenyl]carbamoyl}pyrrolidin-1-yl]-2-oxo-1-phenylethyl}carbamate] | < 1
12 | COC(=O)N[C@H](C(=O)N1CCC[C@H]1C(=O)Nc1ccc(CN(Cc2ccc(NC(=O)[C@@H]3CCCN3C(=O)[C@@H](NC(=O)OC)[C@@H](C)O)cc2)[C@@H]2CCOC2)cc1)[C@@H](C)O [Example 97, dimethyl ([(3R)-tetrahydrofuran-3-ylimino]bis{methanediylbenzene-4,1-diylcarbamoyl(2S)pyrrolidine-2,1-diyl[(2S,3R)-3-hydroxy-1-oxobutane-1,2-diyl]})biscarbamate] | 100 to 250
13 | CC[C@H](NC(=O)OC)C(=O)N1CCC[C@H]1C(=O)Nc1ccc(CN(Cc2ccc(NC(=O)[C@@H]3CCCN3C(=O)[C@@H](NC(=O)OC)C(C)(C)C)cc2)c2ccccc2)cc1 [Example 62, N-(methoxycarbonyl)-3-methyl-L-valyl-N-(4-{[{4-[(1-{(2S)-2-[(methoxycarbonyl)amino]butanoyl}-L-prolyl)amino]benzyl}(phenyl)amino]methyl}phenyl)-L-prolinamide] | 1 to 10
14 | COC(=O)N[C@@H](CC(C)C)C(=O)N1CCC[C@H]1C(=O)Nc1ccc(CN(Cc2ccc(NC(=O)[C@@H]3CCCN3C(=O)[C@H](CC(C)C)NC(=O)OC)cc2)c2ccccc2)cc1 [Example 45, dimethyl [(phenylimino)bis{methanediylbenzene-4,1-diylcarbamoyl(2S)pyrrolidine-2,1-diyl[(2S)-4-methyl-1-oxopentane-1,2-diyl]}]biscarbamate] | 1 to 10
15 | COC(=O)N[C@H](C(=O)N1CCC[C@H]1C(=O)Nc1ccc(CN(Cc2ccc(NC(=O)[C@@H]3CCCN3C(=O)[C@@H](NC(=O)OC)C(C)C)cc2)C2CCCC2)cc1)C(C)C [Example 27, dimethyl[(cyclopentylimino)bis{methanediylbenzene-4,1-diylcarbamoyl(2S)pyrrolidine-2,1-diyl[(2S)-3-methyl-1-oxobutane-1,2-diyl]}]biscarbamate] | 10 to 100
16 | O=C(Nc1ccc(CN(Cc2ccc(NC(=O)[C@@H]3CCCN3C(=O)C(c3ccccc3)N3CCC(F)(F)CC3)cc2)c2ccc(F)cc2)cc1)[C@@H]1CCCN1C(=O)C(c1ccccc1)N1CCC(F)(F)CC1 (single isomer, unassigned) [Example 139] | 1 to 10
17 | COC(=O)N[C@H](C(=O)N1CCC[C@H]1C(=O)Nc1ccc(CN(Cc2ccc(NC(=O)[C@@H]3CCCN3C(=O)[C@H](NC(=O)OC(C)(C)C)c3ccccc3)cc2)c2ccccc2)cc1)C(C)(C)C [Example 74, N-(methoxycarbonyl)-3-methyl-L-valyl-N-(4-{[{4-[(1-{(2R)-2-[(tert-butoxycarbonyl)amino]-2-phenylacetyl}-L-prolyl)amino]benzyl}(phenyl)amino]methyl}phenyl)-L-prolinamide] | < 1
18 | COC(=O)N[C@H](C(=O)N1C[C@@H](F)C[C@H]1C(=O)Nc1ccc(CN(Cc2ccc(NC(=O)[C@@H]3C[C@H](F)CN3C(=O)[C@@H](NC(=O)OC)C(C)(C)C)cc2)c2ccccc2)cc1)C(C)(C)C [Example 94] | 1 to 10
19 | CCN(CC)[C@@H](C(=O)N1CCC[C@H]1C(=O)Nc1ccc(CN(Cc2ccc(NC(=O)[C@@H]3CCCN3C(=O)[C@@H](c3ccccc3)N(CC)CC)cc2)c2ccc(F)c(F)c2)cc1)c1ccccc1 [Example 89, (2S,2′S)-N,N′-{[(3,4-difluorophenyl)imino]bis(methanediylbenzene-4,1-diyl)}bis{1-[(2R)-2-(diethylamino)-2-phenylacetyl]pyrrolidine-2-carboxamide}] | < 1
20 | CC(C)(C)[C@H](Nc1nccs1)C(=O)N1CCC[C@H]1C(=O)Nc1ccc(CN(Cc2ccc(NC(=O)[C@@H]3CCCN3C(=O)[C@@H](Nc3nccs3)C(C)(C)C)cc2)c2ccccc2)cc1 [Example 121, (2S,2′S)-N,N′-[(phenylimino)bis(methanediylbenzene-4,1-diyl)]bis{1-[(2S)-3,3-dimethyl-2-(1,3-thiazol-2-ylamino)butanoyl]pyrrolidine-2-carboxamide}] | < 1
21 | O=C(Nc1ccc(CN(Cc2ccc(NC(=O)[C@@H]3CCCN3C(=O)[C@@H](c3ccccc3)N3CCCC3)cc2)c2ccccc2)cc1)[C@@H]1CCCN1C(=O)[C@@H](c1ccccc1)N1CCCC1 [Example 55, (2S,2′S)-N,N′-[(phenylimino)bis(methanediylbenzene-4,1-diyl)]bis{1-[(2R)-2-phenyl-2-pyrrolidin-1-ylacetyl]pyrrolidine-2-carboxamide}] | < 1
22 | O=C(Nc1ccc(CN(Cc2ccc(NC(=O)[C@@H]3CCCN3C(=O)[C@@H](c3ccccc3)N3CCCC3)cc2)c2ccc(F)cc2)cc1)[C@@H]1CCCN1C(=O)[C@@H](c1ccccc1)N1CCCC1 [Example 85, (2S,2′S)-N,N′-{[(4-fluorophenyl)imino]bis(methanediylbenzene-4,1-diyl)}bis{1-[(2R)-2-phenyl-2-pyrrolidin-1-ylacetyl]pyrrolidine-2-carboxamide}] | < 1

From patent US9278922B2 (ABBVIE INC., priority 2009, dated 2016)
